# Laboratory results taken from patent US4161523A, “Rosamicin esters, acid addition salts and methods for production thereof” (priority 1974, dated 1979).
# Structures can show the parent of a compound that is named as a salt. Where two headings read alike, the source gives them in different places.
# Legend:
# [1] = test system: Bacillus subtilis ATCC 6633; experiment: Cylinder cup assay (bioassay potency); format: cell-based; conditions: for potency (bioassay): reference standard assigned 1000 mcg/mg
# Experimental: The assay technique employed is a cylinder cup assay using Bacillus subtilis ATCC 6633 as the test organism.
# The physical conditions of the assay consist of a base layer of 21 ml. and a seed layer of 4 ml. of Antibiotic Medium No. 5. A standard curve is plotted using the following concentrations of antibiotic ([…]) in 0.1 M phosphate buffer (pH 8.0): 0.64, 0.8, 1.0, 1.25, and 1.56. […] The test procedure and the test medium is substantially that described for erythromycin in Assay Methods of Antibiotics, D. C. Grove and W. A. Randall, Medical Encyclopedia Inc., New York, New York (1955) pp. 96-103.
# Staphylococcus aureus = experiment: In vitro activity, tube dilution (MIC), Staphylococcus aureus; format: cell-based; conditions: 6 strains; yeast beef broth pH 7.4, 18 h, 37° C.; read-out: MIC (Minimal Inhibitory Concentration), range
# Experimental: (§1) The in vitro activity of Antibiotic 67-694 is ascertained by conventional tube dilution procedures using yeast beef broth medium at pH 7.4. The tubes are incubated for 18 hours at 37° C. prior to being observed.
# chymotrypsin = experiment: Stability to chymotrypsin; format: in vitro ADME; conditions: chymotrypsin 1 mg./ml. pH 8, 37° C., 24 hours; disc assay E. coli and S. aureus
# Experimental: (§2) Antiobiotic 67-694 has been tested for stability against trypsin, chymotrypsin, pepsin, and α-amylase. Solutions of the enzymes were prepared at 1 mg./ml. in McIlvaines buffers at the optimal pH for the enzyme (i.e. trypsin and chymotrypsin pH 8; pepsin, pH 2.2; and α-amylase pH 4). Two hundred (200) mcg. of antibiotic was dissolved in 0.5 ml. of water, mixed with 0.5 ml. of enzyme solution and incubated at 37° C. for 24 hours. The solutions were disc assayed against Escherichia coli and Staphylococcus aureus after 0, 1, 2.5 and 24 hours incubation.
# pKa = format: physicochemical
# Diplococcus Pneumoniae = experiment: In vitro activity, tube dilution (MIC), Diplococcus Pneumoniae; format: cell-based; conditions: 3 strains; yeast beef broth pH 7.4, 18 h, 37° C.; read-out: MIC (Minimal Inhibitory Concentration), range
# Experimental: as §1
# [2] = test system: Salmonella schottmuelleri; experiment: In vitro activity, tube dilution (MIC), Salmonella schottmuelleri; format: cell-based; conditions: 3 strains; yeast beef broth pH 7.4, 18 h, 37° C.; read-out: MIC (Minimal Inhibitory Concentration), range
# Experimental: as §1
# Enterococcus sp. = experiment: In vitro activity, tube dilution (MIC), Enterococcus sp.; format: cell-based; conditions: 2 strains; yeast beef broth pH 7.4, 18 h, 37° C.; read-out: MIC (Minimal Inhibitory Concentration), range
# Experimental: as §1
# trypsin = experiment: Stability to trypsin; format: in vitro ADME; conditions: trypsin 1 mg./ml. pH 8, 37° C., 24 hours; disc assay E. coli and S. aureus
# Experimental: as §2
# Acute toxicity in mice = experiment: Acute toxicity in mice; set-up: species or system male CF-1 (Carworth Farms) mice; conditions: mouse, in vivo
# Experimental: (§3) The protective activity and the acute toxicity of Antibiotic 67-694 is tested in male CF-1 (Carworth Farms) mice weighing approximately 20 gms. each. For protection, the antibiotic is given as a suspension or a solution in an aqueous vehicle containing 0.5% carboxy methyl cellulose (CMC) in two doses; one shortly before and one 4 hours after intraperitoneal infection with the bacteria. Infected and non-treated mice (controls) generally die within 18 hours. Survival rate in the treated group is determined 48 hours after infection.
# (§4) The acute toxicity of Antibiotic 67-694 is measured in the standard manner by administering the antibiotic by a variety of routes and determining the LD50 by standard procedures. The results of in vivo tests using a representative gram-positive and a representative gram negative organism are set forth in Tables X and Xi below: […]
# Pseudomonas aeruginosa = experiment: In vitro activity, tube dilution (MIC), Pseudomonas aeruginosa; format: cell-based; conditions: 4 strains; yeast beef broth pH 7.4, 18 h, 37° C.; read-out: MIC (Minimal Inhibitory Concentration), range
# Experimental: as §1
# Streptococcus pyogenes C = experiment: Protective activity in mice, Streptococcus pyogenes C infection; format: in vivo, male CF-1 (Carworth Farms) mice; conditions: two doses, survival 48 hours after infection, read-out: PD50
# Experimental: as §3, §4
# Streptococcus pyogenes = experiment: In vitro activity, tube dilution (MIC), Streptococcus pyogenes; format: cell-based; conditions: 7 strains; yeast beef broth pH 7.4, 18 h, 37° C.; read-out: MIC (Minimal Inhibitory Concentration), range
# Experimental: as §1
# Klebsiella pneumoniae = experiment: In vitro activity, tube dilution (MIC), Klebsiella pneumoniae; format: cell-based; conditions: 4 strains; yeast beef broth pH 7.4, 18 h, 37° C.; read-out: MIC (Minimal Inhibitory Concentration), range
# Experimental: as §1
# [3] = in 66% dimethylformamide; data from U.S. Pat. No. 3,767,793; cited from earlier work
# [4] = U.S. Pat. No. 3,767,793, cited from earlier work
# pepsin = experiment: Stability to pepsin; format: in vitro ADME; conditions: pepsin 1 mg./ml. pH 2.2, 37° C., 24 hours; disc assay E. coli and S. aureus
# Experimental: as §2
# Solubility = format: physicochemical; conditions: U.S. Pharmacopea, 17th revision
# Source text: ^a) According to U.S. Pharmacopea, 17th revision (1965) pg. 8
# Proteus sp. = experiment: In vitro activity, tube dilution (MIC), Proteus sp.; format: cell-based; conditions: 3 strains; yeast beef broth pH 7.4, 18 h, 37° C.; read-out: MIC (Minimal Inhibitory Concentration), range
# Experimental: as §1
# Aerobacter aerogenes = experiment: In vitro activity, tube dilution (MIC), Aerobacter aerogenes; format: cell-based; conditions: 3 strains; yeast beef broth pH 7.4, 18 h, 37° C.; read-out: MIC (Minimal Inhibitory Concentration), range
# Experimental: as §1
# α-amylase = experiment: Stability to α-amylase; format: in vitro ADME; conditions: α-amylase 1 mg./ml. pH 4, 37° C., 24 hours; disc assay E. coli and S. aureus
# Experimental: as §2
# [5] = test system: Staphylococcus aureus gray; experiment: Protective activity in mice, Staphylococcus aureus gray infection; format: in vivo, male CF-1 (Carworth Farms) mice; conditions: two doses, survival 48 hours after infection, read-out: PD50
# Experimental: as §3, §4
# Escherichia coli = experiment: In vitro activity, tube dilution (MIC), Escherichia coli; format: cell-based; conditions: 3 strains; yeast beef broth pH 7.4, 18 h, 37° C.; read-out: MIC (Minimal Inhibitory Concentration), range
# Experimental: as §1
# gram-positive bacteria = experiment: Antibacterial activity, general statements; format: cell-based
# Experimental: as §1
compound,measurement,setting,value
CCC(=O)OC1C(OC2C(CC=O)CC(C)C(=O)C=CC3(C)OC3C(C)C(CC)OC(=O)CC(O)C2C)OC(C)CC1N(C)C (centres unmarked) [Antibiotic 67-694 2'-Propionate Phosphate Salt],potency (bioassay),[1]; Phosphate Salt,915 µg/mg
"CCCCCCCCCCCCCCCCCC(=O)OC1C(OC2C(CC=O)CC(C)C(=O)C=CC3(C)OC3C(C)C(CC)OC(=O)CC(O)C2C)OC(C)CC1N(C)C (centres unmarked) [Antibiotic 67-694 2'-stearate, Antibiotic 67-694 2'-Stearate]",potency (bioassay),[1],585 µg/mg
CCC1OC(=O)CC(O)C(C)C(OC2OC(C)CC(N(C)C)C2O)C(CC=O)CC(C)C(=O)C=CC2(C)OC2C1C (centres unmarked) [Antibiotic 67-694],MIC,Staphylococcus aureus,0.03 to 3 µg/mL
same,Stability to enzymes: loss in activity,chymotrypsin,no substantial loss in activity
same,pKa,pKa,8.7
same,MIC,Diplococcus Pneumoniae,0.03 to 0.08 µg/mL
same,MIC,[2],0.3 to 3 µg/mL
same,MIC,Enterococcus sp.,0.03 µg/mL
same,Stability to enzymes: loss in activity,trypsin,no substantial loss in activity
same,LD50,"Acute toxicity in mice; ip, Intraperitoneal",350 mg/kg
same,LD50,"Acute toxicity in mice; sc, Subcutaneous",625 mg/kg
same,LD50,Acute toxicity in mice; Intravenous,155 mg/kg
same,MIC,Pseudomonas aeruginosa,0.75 to 3 µg/mL
same,ED50,Streptococcus pyogenes C; Oral,200 mg/kg
same,ED50,"Streptococcus pyogenes C; sc, Subcutaneous",50 mg/kg
same,MIC,Streptococcus pyogenes,0.75 to 3 µg/mL
same,MIC,Klebsiella pneumoniae,0.3 to 3 µg/mL
same,pKa,[3],8.4
same,Solubilities,"[4]; benzene, chloroform, ethyl acetate, dimethylformamide, ethanol or an aqueous acid solution",Soluble
same,Solubilities,"[4]; petroleum ether, n-hexane or a neutral water",Insoluble
same,Stability to enzymes: loss in activity,pepsin,no substantial loss in activity
same,Solubility,Solubility; Acetone,Very soluble
same,Solubility,Solubility; Benzene,Very soluble
same,Solubility,Solubility; Chloroform,Very soluble
same,Solubility,Solubility; Ether,Sparingly soluble
same,Solubility,Solubility; Methanol,Very soluble
same,Solubility,Solubility; Water,Slightly soluble
same,MIC,Proteus sp.,0.3 µg/mL
same,MIC,Aerobacter aerogenes,0.75 to 7.5 µg/mL
same,potency (assaying units per mg),"[1]; purified by silicic acid column, Example 4","about 1,000 units per mg"
same,Stability to enzymes: loss in activity,α-amylase,no substantial loss in activity
same,ED50,[5]; oral,200 mg/kg
same,ED50,"[5]; sc, Subcutaneous",50 mg/kg
same,MIC,Escherichia coli,3 µg/mL
same,antibacterial activity / spectrum (in words),gram-positive bacteria,broad antibacterial spectrum in vitro with a greater effect upon gram-positive bacteria
